Assay [1] concerns the target T1, human LXRβ (Homo sapiens, UniProt P55055).
T1 construct: biotin (biotinylated; biotinylation tag not described); made in house; host or cells: E. coli
T1 sequence (P55055 1-460): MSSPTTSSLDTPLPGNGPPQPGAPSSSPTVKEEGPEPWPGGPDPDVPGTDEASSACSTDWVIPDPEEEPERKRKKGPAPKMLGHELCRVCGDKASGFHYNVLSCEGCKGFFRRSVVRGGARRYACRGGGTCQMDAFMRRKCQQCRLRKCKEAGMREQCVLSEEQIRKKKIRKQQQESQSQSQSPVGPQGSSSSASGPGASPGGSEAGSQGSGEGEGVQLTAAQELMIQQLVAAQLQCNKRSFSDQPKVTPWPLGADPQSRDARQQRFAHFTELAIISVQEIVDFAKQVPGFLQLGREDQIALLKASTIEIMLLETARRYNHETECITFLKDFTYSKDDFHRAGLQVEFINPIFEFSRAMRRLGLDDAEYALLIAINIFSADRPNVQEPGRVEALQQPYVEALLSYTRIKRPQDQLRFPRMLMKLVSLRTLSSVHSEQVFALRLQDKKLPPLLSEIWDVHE
As to the kind of experiment: Ligand-binding test procedure for human LXRβ (3H T0901317 competition, flash plates). As to conditions: for Binding ratio a/b: IC50 (μM) LXRα binding/IC50 (μM) LXRβ binding; for IC50: biotinylated hLXRβ, tracer 3H T0901317.

Assay [2] concerns the target T2, human LXRα (Homo sapiens, UniProt Q13133).
T2 construct: biotin (biotinylated; biotinylation tag not described); made in house; host or cells: E. coli
T2 sequence (Q13133 1-447): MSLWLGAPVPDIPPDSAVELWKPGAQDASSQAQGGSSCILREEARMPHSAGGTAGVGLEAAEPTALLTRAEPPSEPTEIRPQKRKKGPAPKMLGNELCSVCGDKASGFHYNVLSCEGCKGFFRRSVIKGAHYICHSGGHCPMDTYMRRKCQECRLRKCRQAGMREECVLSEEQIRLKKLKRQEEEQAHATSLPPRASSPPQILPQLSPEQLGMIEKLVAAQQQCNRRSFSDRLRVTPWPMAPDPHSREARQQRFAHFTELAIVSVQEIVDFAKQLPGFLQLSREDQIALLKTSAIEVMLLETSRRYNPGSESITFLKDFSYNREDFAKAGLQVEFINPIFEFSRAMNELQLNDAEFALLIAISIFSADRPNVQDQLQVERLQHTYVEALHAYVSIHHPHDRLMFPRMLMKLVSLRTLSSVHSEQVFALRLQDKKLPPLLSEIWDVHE
As to the kind of experiment: Ligand-binding test procedure for human LXRα (3H T0901317 competition, flash plates). Particulars: biotinylated hLXRα, tracer 3H T0901317. A digest of the protocol: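 Competition binding of test ligands against 5 nM ³H tracer solution (pre-mix concentration) on biotinylated hLXRα from E. coli extract, captured on streptavidin flash plates (Bmax ~4000 cpm). Ligand dilution series made in DMSO. Incubated overnight at +4 °C; bound radioactivity counted after washing.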

The values below come from patent publication US20090069373A1, “Quinoline Acids” (Wyeth, priority 2007, published 2009).

As for `O=C(O)c1ccc(Cn2ccc3c(-c4c(Cc5ccccc5)cnc5c(C(F)(F)F)cccc45)cccc32)cc1` [Example 127, 4-({4-[3-Benzyl-8-(trifluoromethyl)quinolin-4-yl]-1H-indol-1-yl}methyl)benzoic acid], in assay [1], the Binding ratio a/b was 1 and the IC50 was 2.46 µM. Moreover, the IC50 in assay [2] is 2.14 µM.

With `O=C(O)c1c[nH]c2c(NCc3cccc(-c4c(Cc5ccccc5)cnc5c(C(F)(F)F)cccc45)c3)cccc12` [Example 83, 7-({3-[3-benzyl-8-(trifluoromethyl)quinolin-4-yl]benzyl}amino)-1H-indole-3-carboxylic acid], in assay [1], the Binding ratio a/b came to 3. Moreover, the half-inhibitory concentration (IC50) in assay [1] came out at 0.292 µM; in assay [2], 0.802 µM.

With `O=C(O)c1ccc(F)c(OCc2cccc(-c3c(Cc4ccccc4)cnc4c(C(F)(F)F)cccc34)c2)c1` [Example 92, 3-({3-[3-benzyl-8-(trifluoromethyl)quinolin-4-yl]benzyl}oxy)-4-fluorobenzoic acid], in assay [1], the Binding ratio a/b was 2 and the IC50 stood at 0.57 µM. Also, in assay [2], the concentration for half-maximal inhibition (IC50) is 1.28 µM.

In the case of `O=C(O)c1cccc2c(NCc3cccc(-c4ccnc5c(C(F)(F)F)cccc45)c3)cccc12` [Example 48, 5-({3-[8-(trifluoromethyl)quinolin-4-yl]benzyl}amino)-1-naphthoic acid], the Binding ratio a/b in assay [1] is 6. Further, the IC50 in assay [1] stood at 0.538 µM; in assay [2], 3.27 µM.

Take `O=C(O)c1c(F)cccc1NCc1cccc(-c2c(Cc3ccccc3)cnc3c(C(F)(F)F)cccc23)c1` [Example 58, 2-({3-[3-benzyl-8-(trifluoromethyl)quinolin-4-yl]benzyl}amino)-6-fluorobenzoic acid]: the Binding ratio a/b in assay [1] is on record as 5. Also, the IC50 worked out at 0.025 µM in assay [1] and 0.121 µM in assay [2].

For `O=C(O)Cc1ccc2cccc(OCc3cccc(-c4c(Cc5ccccc5)cnc5c(C(F)(F)F)cccc45)c3)c2c1` [Example 114, [8-({3-[3-benzyl-8-(trifluoromethyl)quinolin-4-yl]benzyl}oxy)-2-naphthyl]acetic acid], in assay [1], the Binding ratio a/b came to 1 and the IC50 came out at 1.19 µM. The half-inhibitory concentration (IC50) in assay [2] stood at 1.29 µM.

Consider `O=C(O)Cc1cccc2cc(OCc3cccc(-c4c(Cc5ccccc5)cnc5c(C(F)(F)F)cccc45)c3)ccc12` [Example 57, [6-({3-[3-benzyl-8-(trifluoromethyl)quinolin-4-yl]benzyl}oxy)-1-naphthyl]acetic acid], for which, in assay [1], the Binding ratio a/b worked out at 5. The results for the IC50 in assay [1] and in assay [2] were 0.055 µM and 0.267 µM, respectively.

Consider `O=C(O)c1cc2cccc(NCc3cccc(-c4c(Cc5ccccc5)cnc5c(C(F)(F)F)cccc45)c3)c2[nH]1` [Example 77, 7-({3-[3-benzyl-8-(trifluoromethyl)quinolin-4-yl]benzyl}amino)-1H-indole-2-carboxylic acid], for which, in assay [1], the Binding ratio a/b was 3 and the IC50 came out at 0.408 µM. Besides, the half-maximal inhibitory concentration (IC50) in assay [2] is 1.25 µM.

For `O=C(N[C@@H](Cc1c[nH]cn1)C(=O)O)c1ccc(COc2cccc(-c3c(Cc4ccccc4)cnc4c(C(F)(F)F)cccc34)c2)cc1` [Example 61, N-[4-({3-[3-benzyl-8-(trifluoromethyl)quinolin-4-yl]phenoxy}methyl)benzoyl]histidine], in assay [1], the Binding ratio a/b came out at 5 and the half-maximal inhibitory concentration (IC50) came to 0.145 µM. The compound further came in with an IC50 in assay [2] of 0.681 µM.

Take `O=C(O)c1cc2ccccc2cc1OCc1cccc(-c2c(Cc3ccccc3)cnc3c(C(F)(F)F)cccc23)c1` [Example 109, 3-({3-[3-benzyl-8-(trifluoromethyl)quinolin-4-yl]benzyl}oxy)-2-naphthoic acid]: the Binding ratio a/b in assay [1] was 1. For the same compound, the IC50 was determined as 2.73 µM in assay [1] and 3.59 µM in assay [2].

As for `Cc1cc(NCc2cccc(-c3ccnc4c(C(F)(F)F)cccc34)c2)c(C)cc1CC(=O)O` [Example 4, [2,5-Dimethyl-4-({3-[8-(trifluoromethyl)quinolin-4-yl]benzyl}amino)phenyl]acetic acid], in assay [1], the Binding ratio a/b was found to be 31 and the half-inhibitory concentration (IC50) was 0.288 µM. In addition, the 50% inhibitory concentration (IC50) in assay [2] is 9.03 µM.

For the compound `O=C(O)c1cc(F)ccc1OCc1cccc(-c2c(Cc3ccccc3)cnc3c(C(F)(F)F)cccc23)c1` [Example 104, 2-({3-[3-benzyl-8-(trifluoromethyl)quinolin-4-yl]benzyl}oxy)-5-fluorobenzoic acid], the Binding ratio a/b in assay [1] was found to be 1. Besides, the concentration for half-maximal inhibition (IC50) was found to be 2.15 µM in assay [1] and 3.2 µM in assay [2].

As for `Cc1ccc(CC(=O)O)cc1OCc1cccc(-c2c(Cc3ccccc3)cnc3c(C(F)(F)F)cccc23)c1` [Example 62, [3-({3-[3-benzyl-8-(trifluoromethyl)quinolin-4-yl]benzyl}oxy)-4-methylphenyl]acetic acid], the Binding ratio a/b in assay [1] is on record as 5. The figures for the IC50 in assay [1] and in assay [2] were 0.027 µM and 0.125 µM, respectively.

As to `O=C(O)Cc1cccc2ccc(OCc3cccc(-c4c(Cc5ccccc5)cnc5c(C(F)(F)F)cccc45)c3)cc12` [Example 86, [7-({3-[3-benzyl-8-(trifluoromethyl)quinolin-4-yl]benzyl}oxy)-1-naphthyl]acetic acid], in assay [1], the Binding ratio a/b was 3 and the IC50 came to 0.374 µM. Moreover, the IC50 in assay [2] turned out to be 0.997 µM.

Take `Cn1c(C(=O)O)cc2cc(NCc3cccc(-c4c(Cc5ccccc5)cnc5c(C(F)(F)F)cccc45)c3)ccc21` [Example 63, 5-({3-[3-benzyl-8-(trifluoromethyl)quinolin-4-yl]benzyl}amino)-1-methyl-1H-indole-2-carboxylic acid]: in assay [1], the Binding ratio a/b came out at 5 and the half-maximal inhibitory concentration (IC50) is 0.332 µM. The IC50 in assay [2] is 1.53 µM.

In the case of `O=C(O)[C@@H]1CCCN1C(=O)c1ccc(COc2cccc(-c3c(Cc4ccccc4)cnc4c(C(F)(F)F)cccc34)c2)cc1` [Example 54, 1-[4-({3-[3-benzyl-8-(trifluoromethyl)quinolin-4-yl]phenoxy}methyl)benzoyl]proline], in assay [1], the Binding ratio a/b was 5 and the IC50 was found to be 0.062 µM. Also, in assay [2], the 50% inhibitory concentration (IC50) was 0.321 µM.

As for `Cc1c(NCc2cccc(-c3c(Cc4ccccc4)cnc4c(C(F)(F)F)cccc34)c2)ccc(C(=O)O)c1C` [Example 103, 4-({3-[3-benzyl-8-(trifluoromethyl)quinolin-4-yl]benzyl}amino)-2,3-dimethylbenzoic acid], the Binding ratio a/b in assay [1] turned out to be 2. Moreover, the IC50 in assay [1] is 3.3 µM; in assay [2], 5.04 µM.

Take `O=C(O)c1cc(NCc2cccc(-c3c(Cc4ccccc4)cnc4c(C(F)(F)F)cccc34)c2)ccc1Cl` [Example 82, 5-({3-[3-benzyl-8-(trifluoromethyl)quinolin-4-yl]benzyl}amino)-2-chlorobenzoic acid]: in assay [1], the Binding ratio a/b is recorded as 3 and the half-inhibitory concentration (IC50) turned out to be 0.523 µM. This compound yielded an IC50 in assay [2] of 1.45 µM.

`Cc1cnc2c(C(F)(F)F)cccc2c1-c1cccc(CNc2cccc3c(C(=O)O)cccc23)c1` [Example 80, 5-({3-[3-methyl-8-(trifluoromethyl)quinolin-4-yl]benzyl}amino)-1-naphthoic acid]: in assay [1], the Binding ratio a/b came out at 3 and the concentration for half-maximal inhibition (IC50) turned out to be 0.129 µM. The same compound came in with an IC50 in assay [2] of 0.374 µM.

Consider `Cn1cc(C(=O)O)c2cccc(NCc3cccc(-c4c(Cc5ccccc5)cnc5c(C(F)(F)F)cccc45)c3)c21` [Example 44, 7-({3-[3-benzyl-8-(trifluoromethyl)quinolin-4-yl]benzyl}amino)-1-methyl-1H-indole-3-carboxylic acid], for which, in assay [1], the Binding ratio a/b amounted to 6. The IC50 in assay [1] is 0.165 µM; in assay [2] it was 1.05 µM.

In the case of `O=C(O)Cc1ccc(NCc2cncc(-c3c(Cc4ccccc4)cnc4c(C(F)(F)F)cccc34)c2)cc1` [Example 36, {4-[({5-[3-benzyl-8-(trifluoromethyl)quinolin-4-yl]pyridin-3-yl}methyl)amino]phenyl}acetic acid], the Binding ratio a/b in assay [1] is listed as 7. Also, the IC50 stood at 0.191 µM in assay [1] and 1.36 µM in assay [2].

Regarding `COc1ccc(C(=O)O)cc1C#Cc1cccc(-c2c(Cc3ccccc3)cnc3c(C(F)(F)F)cccc23)c1` [Example 131, 3-({3-[3-Benzyl-8-(trifluoromethyl)quinolin-4-yl]phenyl}ethynyl)-4-methoxybenzoic acid], in assay [1], the Binding ratio a/b stood at 2 and the concentration for half-maximal inhibition (IC50) is 1.47 µM. In addition, in assay [2], the IC50 was 2.63 µM.

Usually IC50 stands for the midpoint of a concentration-inhibition curve. Read a low IC50 as inhibition by little substance.
